Assay results: ChEMBL document CHEMBL1201862, “PubChem BioAssay data set” (2004)
Active and inactive are the calls of the source.

Experiments:
Insulin-degrading enzyme = molecular target: T1, Insulin-degrading enzyme (Homo sapiens, UniProt P14735); test: Dose Response: Fluorescence polarization-based cell-based high throughput dose response assay for inhibitors of insulin-degrading enzyme (IDE). [Related pubchem assays: 434962 (Primary screen (IDE inhibitors in singlicate)), 449730 (Counterscreen (Cytotoxicity in triplicate)), 435028 (Confirmation (IDE inhibitors in triplicate)), 434984 (Summary …; type: functional
T1 sequence (P14735 whole entry): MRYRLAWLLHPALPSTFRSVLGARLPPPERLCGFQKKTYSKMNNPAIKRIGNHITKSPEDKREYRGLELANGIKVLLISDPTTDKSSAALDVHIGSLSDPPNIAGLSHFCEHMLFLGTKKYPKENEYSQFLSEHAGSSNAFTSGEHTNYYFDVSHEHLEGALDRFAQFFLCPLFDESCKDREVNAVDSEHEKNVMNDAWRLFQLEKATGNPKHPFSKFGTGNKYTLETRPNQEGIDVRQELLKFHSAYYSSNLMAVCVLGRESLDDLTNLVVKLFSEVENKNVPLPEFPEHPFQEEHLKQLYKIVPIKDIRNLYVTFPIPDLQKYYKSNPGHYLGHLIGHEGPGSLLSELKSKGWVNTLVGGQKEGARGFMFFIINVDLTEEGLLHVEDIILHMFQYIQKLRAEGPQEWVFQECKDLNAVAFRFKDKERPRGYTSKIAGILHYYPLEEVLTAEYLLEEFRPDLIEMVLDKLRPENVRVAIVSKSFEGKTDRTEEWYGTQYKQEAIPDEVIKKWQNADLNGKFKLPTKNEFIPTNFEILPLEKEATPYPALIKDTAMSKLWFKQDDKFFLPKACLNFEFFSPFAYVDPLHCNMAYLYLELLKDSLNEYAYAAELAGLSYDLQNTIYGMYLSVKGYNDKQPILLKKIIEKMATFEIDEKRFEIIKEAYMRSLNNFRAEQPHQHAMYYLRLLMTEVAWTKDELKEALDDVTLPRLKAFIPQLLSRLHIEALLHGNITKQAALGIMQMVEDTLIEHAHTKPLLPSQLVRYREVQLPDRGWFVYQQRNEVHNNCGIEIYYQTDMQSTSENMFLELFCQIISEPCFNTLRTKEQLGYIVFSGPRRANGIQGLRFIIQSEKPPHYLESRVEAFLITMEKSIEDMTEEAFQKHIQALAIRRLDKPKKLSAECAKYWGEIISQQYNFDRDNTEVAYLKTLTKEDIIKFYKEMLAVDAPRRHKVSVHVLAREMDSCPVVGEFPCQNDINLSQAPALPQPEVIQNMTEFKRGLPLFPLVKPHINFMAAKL

[1] = Counterscreen for IDE inhibitors: Luminescence-based cell-based high throughput dose response assay to identify compounds that are cytotoxic to HEK cells. [Related pubchem assays: 434962 (Primary screen (IDE inhibitors in singlicate)), 449730 (Counterscreen (Cytotoxicity in triplicate)), 435028 (Confirmation (IDE inhibitors in triplicate)) …; type: functional; conditions: HEK293
[2] = alpha-synuclein stem-loop translation blockers – luminescence, H4 neuroglioblastoma cells, dose confirmation, confirmation (AID 2454); type: functional, cell-based;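 note: H4 neuroglioblastoma cells carrying an alpha-synuclein 5'UTR luciferase reporter; potency for inhibition of the luciferase signal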
cells = type: functional, cell-based
[3] = alpha-synuclein stem-loop luciferase translation blockers – H4 neuroglioma cells, luminescence, confirmation (AID 1988); type: functional, cell-based
[4] = Luminescence Cell-Based Dose Confirmation HTS to Identify Inhibitors of Platelet Dense Granule Release. [Related pubchem assays: 1663 (Primary HTS), 1678 (Summary of Project)]; type: functional
[5] = luciferase reporter signal suppression in cells – H4 neuroglioma cells, luminescence, dose response (AID 1990); type: functional, cell-based
Vero [6] = test: cells; type: functional, cell-based; conditions: Chlorocebus sabaeus
[7] = loss of viability in HepG2 cells – cell-based, CellTiter-Glo, cherry-picked, cytotoxicity control for Shn3 inhibitor project, dose response (AID 624134); type: functional
[8] = reduction of Shn3 3'UTR-driven luciferase in osteoblasts – cell-based, Clone20 osteoblasts, firefly luciferase, cherry-picked, dose response (AID 624132); type: functional;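 note: firefly luciferase luminescence from reporter carrying the Shn3 3'UTR in osteoblasts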
[9] = luciferase reporter signal reduction – luminescence, H4-C neuroglioblastoma cells, dose response (AID 2458); type: functional, cell-based;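 note: H4 neuroglioblastoma cells stably carrying a luciferase reporter gene fusion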
[10] = Luminescence Cell-Based Dose Response HTS to Identify Inhibitors of 5'UTR Stem-Loop Driven Prion Protein mRNA Translation in H4 Neuroglioblastoma Cells. [Related pubchem assays: 1827 (Project Summary), 1813 (Primary HTS)]; type: functional
[11] = molecular target: T2, Heat shock factor protein 1 (Mus musculus, UniProt P38532); test: decrease of HSF1-responsive luciferase luminescence – cell-based, NIH3T3, dose retest, confirmation (AID 2382); type: functional;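 note: NIH3T3 fibroblasts with HSF1-driven luciferase reporter stressed by proteasome inhibitor MG132; luminescence from HSF1-driven luciferase expression after 8 hours of MG132 stress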
T2 sequence (P38532 whole entry): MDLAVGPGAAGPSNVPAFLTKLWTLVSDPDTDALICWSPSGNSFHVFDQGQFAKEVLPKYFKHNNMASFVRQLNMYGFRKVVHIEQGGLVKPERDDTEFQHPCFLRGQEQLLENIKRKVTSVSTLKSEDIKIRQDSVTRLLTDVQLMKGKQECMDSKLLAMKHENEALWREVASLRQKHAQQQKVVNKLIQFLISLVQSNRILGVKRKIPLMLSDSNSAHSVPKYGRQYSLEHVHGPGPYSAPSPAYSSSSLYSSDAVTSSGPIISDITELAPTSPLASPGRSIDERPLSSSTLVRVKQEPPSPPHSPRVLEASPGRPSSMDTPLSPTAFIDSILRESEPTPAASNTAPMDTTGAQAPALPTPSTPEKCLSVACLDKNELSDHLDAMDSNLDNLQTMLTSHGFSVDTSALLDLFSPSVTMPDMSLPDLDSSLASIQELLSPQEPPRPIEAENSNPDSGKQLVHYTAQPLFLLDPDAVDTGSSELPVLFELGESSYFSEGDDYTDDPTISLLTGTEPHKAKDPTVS

Vero [12] = test: cells; type: functional; conditions: Chlorocebus sabaeus
[13] = Luminescence-based counterscreen assay for KLF5 inhibitors: dose response cell-based high throughput screening assay to identify cytotoxic compounds using the IEC-6 intestinal epithelial cell line. [Related pubchem assays: 1700 (Primary screen.), 1834 (Confirmation screen.), 1858 (Summary AID.), 1905 (Counterscreen.)]; type: functional
[14] = molecular target: Luciferin 4-monooxygenase (Photinus pyralis, UniProt P08659); test: inhibition of purified Photinus pyralis luciferase – biochemical, luminescence, dose response (AID 1891)
Luciferin 4-monooxygenase, sequence (P08659 whole entry): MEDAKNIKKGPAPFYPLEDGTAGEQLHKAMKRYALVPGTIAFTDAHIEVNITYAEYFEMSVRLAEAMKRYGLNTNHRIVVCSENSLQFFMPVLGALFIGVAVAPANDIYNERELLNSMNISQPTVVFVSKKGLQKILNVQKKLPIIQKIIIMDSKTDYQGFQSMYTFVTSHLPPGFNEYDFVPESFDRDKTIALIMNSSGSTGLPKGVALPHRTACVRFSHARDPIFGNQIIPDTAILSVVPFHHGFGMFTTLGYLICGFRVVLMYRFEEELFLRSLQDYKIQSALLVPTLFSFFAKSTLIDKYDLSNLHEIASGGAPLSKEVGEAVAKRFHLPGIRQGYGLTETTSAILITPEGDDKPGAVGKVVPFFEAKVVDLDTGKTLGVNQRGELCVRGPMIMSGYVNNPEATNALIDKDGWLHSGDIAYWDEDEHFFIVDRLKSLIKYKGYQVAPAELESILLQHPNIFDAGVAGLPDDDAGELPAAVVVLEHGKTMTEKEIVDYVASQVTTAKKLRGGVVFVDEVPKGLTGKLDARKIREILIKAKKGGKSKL

Bcl-2-like protein 10 = molecular target: T3, Bcl-2-like protein 10 (Homo sapiens, UniProt Q9HD36); test: Concentration-response of Bcl-B inhibitors by biochemical FP with TR3 (AID 1243); type: functional
T3 sequence (Q9HD36 whole entry): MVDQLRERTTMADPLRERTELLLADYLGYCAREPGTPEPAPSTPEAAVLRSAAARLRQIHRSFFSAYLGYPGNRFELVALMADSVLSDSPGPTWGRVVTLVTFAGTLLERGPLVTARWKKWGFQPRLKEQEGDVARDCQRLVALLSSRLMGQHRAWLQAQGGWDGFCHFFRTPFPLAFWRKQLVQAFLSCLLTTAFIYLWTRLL

[15] = antiviral protection against BTV-induced cell death – arbovirus, BSR cells, confirmation (AID 1250); type: functional;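 note: protection from viral cytopathic effect measured as cell viability by ATP luminescence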
Aminopeptidase N = molecular target: T4, Aminopeptidase N (Plasmodium falciparum FcB1/Columbia, UniProt O96935); test: malaria alanyl aminopeptidase activity blockers – biochemical, fluorogenic H-Leu-NHMec substrate, 1536-well (AID 1445); parameters: species or system Plasmodium falciparum 3D7, 3D7
T4 sequence (O96935 whole entry): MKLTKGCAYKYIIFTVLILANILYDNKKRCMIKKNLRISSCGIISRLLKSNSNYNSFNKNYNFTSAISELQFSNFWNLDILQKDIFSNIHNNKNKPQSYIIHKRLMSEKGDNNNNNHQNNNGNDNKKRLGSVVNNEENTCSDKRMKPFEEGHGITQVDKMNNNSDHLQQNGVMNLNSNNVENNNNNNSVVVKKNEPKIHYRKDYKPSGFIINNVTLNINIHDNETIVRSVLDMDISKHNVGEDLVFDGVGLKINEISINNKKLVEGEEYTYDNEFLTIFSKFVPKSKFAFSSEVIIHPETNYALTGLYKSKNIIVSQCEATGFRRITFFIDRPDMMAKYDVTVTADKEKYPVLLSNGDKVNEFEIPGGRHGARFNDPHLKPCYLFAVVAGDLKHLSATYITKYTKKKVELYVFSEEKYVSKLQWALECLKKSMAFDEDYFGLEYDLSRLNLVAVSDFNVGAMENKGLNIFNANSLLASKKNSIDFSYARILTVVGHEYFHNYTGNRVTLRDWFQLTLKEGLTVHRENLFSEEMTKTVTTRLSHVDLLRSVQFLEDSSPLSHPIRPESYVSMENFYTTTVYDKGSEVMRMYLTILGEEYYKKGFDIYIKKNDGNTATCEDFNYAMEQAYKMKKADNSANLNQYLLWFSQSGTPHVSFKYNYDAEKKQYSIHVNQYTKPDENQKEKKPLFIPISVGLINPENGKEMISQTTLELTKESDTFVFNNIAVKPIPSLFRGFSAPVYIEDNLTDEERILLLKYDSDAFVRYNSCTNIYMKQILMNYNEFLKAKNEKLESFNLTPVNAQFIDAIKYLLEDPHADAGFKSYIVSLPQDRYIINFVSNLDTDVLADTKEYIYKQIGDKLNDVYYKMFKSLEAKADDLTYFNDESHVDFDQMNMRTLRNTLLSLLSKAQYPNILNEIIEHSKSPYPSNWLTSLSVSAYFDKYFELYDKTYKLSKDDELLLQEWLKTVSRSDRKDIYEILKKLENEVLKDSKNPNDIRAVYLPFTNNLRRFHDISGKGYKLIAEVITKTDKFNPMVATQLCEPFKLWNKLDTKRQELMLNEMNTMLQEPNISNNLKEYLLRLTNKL

[16] = molecular target: Lysosomal acid glucosylceramidase (Homo sapiens, UniProt P04062); test: Dose response cell-based high throughput screening assay to identify enhancers of beta-glucosidase activity. [Related pubchem assays: 784 ]; type: functional
Lysosomal acid glucosylceramidase, sequence (P04062 whole entry): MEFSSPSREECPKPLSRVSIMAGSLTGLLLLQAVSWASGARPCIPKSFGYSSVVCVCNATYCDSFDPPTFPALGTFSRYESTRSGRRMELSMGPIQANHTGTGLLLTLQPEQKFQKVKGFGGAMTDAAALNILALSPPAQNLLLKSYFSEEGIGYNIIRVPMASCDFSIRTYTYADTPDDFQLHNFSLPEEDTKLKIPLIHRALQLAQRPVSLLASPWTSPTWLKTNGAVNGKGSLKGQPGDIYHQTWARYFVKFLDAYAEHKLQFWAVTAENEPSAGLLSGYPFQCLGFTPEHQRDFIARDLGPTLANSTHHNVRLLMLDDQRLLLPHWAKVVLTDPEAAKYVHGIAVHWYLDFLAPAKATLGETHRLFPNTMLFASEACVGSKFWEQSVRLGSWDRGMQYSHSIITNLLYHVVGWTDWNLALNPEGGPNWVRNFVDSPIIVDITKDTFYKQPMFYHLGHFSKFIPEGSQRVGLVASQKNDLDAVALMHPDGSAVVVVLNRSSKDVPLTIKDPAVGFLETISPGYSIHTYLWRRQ

## Cc1cccc(N2CCN(C(=O)c3cccc(N4C(=O)C5CC=CC(C)C5C4=O)c3)CC2)c1C (stereo not given)
Insulin-degrading enzyme
  IC50: 4 µM (active)
[1]
  IC50: 23.8 µM (not active)

## CN1CCN(c2ccc(-c3ccc4ccccc4n3)cc2)CC1
[2]
  EC50: 0.039 µM (active)
cells
  EC50: 0.123 µM (active)
[3]
  EC50: < 0.1 µM (active)
[4]
  EC50: 1.66 µM (active)
[5]
  EC50: < 0.195 µM (active)
Vero [6]
  IC50: > 25 µM (active)
[7]
  AC50: 22.6 µM (active)
[8]
  AC50: 2.73 µM (active)
[9]
  EC50: 0.134 µM (active)
[10]
  EC50: < 0.1 µM (active)
[11]
  EC50: < 0.16 µM (active)
Vero [12]
  CC50: > 25 µM (active)
[13]
  IC50: 26.6 µM (not active)
[14]
  EC50: 0.953 µM (active)

## C(=N\c1ccc(/N=C/c2ccccn2)cc1)/c1ccccn1
Bcl-2-like protein 10
  EC50: 4.39 µM (active)

## O=C(Nc1scc(-c2cccs2)c1C(=O)O)c1cccs1
[15]
  IC50: 24 µM (active)
Aminopeptidase N
  IC50: 49.2 µM (active)

## O=C1Nc2ccccc2C(O)(C(=O)NC2CC2)N1c1ccc(Cl)c(Cl)c1 (stereo not given)
[16]
  EC50: > 50 µM (not active)
